For this assay, the system named is platelet aggregation (Dog PRP). The assay is described as follows: In-Vitro Platelet Aggregation in PRP (ADP-induced, dog platelet-rich plasma). Format: cell-based. Conditions: Canis lupus familiaris, ADP 50 um final concentration; for IC50: linear regression of dose response curve, read-out: IC50 (dosage at which 50% of platelet aggregation is inhibited). The procedure: Healthy male or female dogs were fasted for 8 hours prior to drawing blood; then 30 ml whole blood was collected using a butterfly needle and 30 cc plastic syringe with 3 ml or 0.129M buffered sodium citrate (3.8%). The syringe was rotated carefully as blood was drawn to mix the citrate. Platelet-rich plasma (PRP) was prepared by centrifugation at 975 x g for 3.17 minutes at room temperature allowing the centrifuge to coast to a stop without braking. The PRP was removed from the blood with a plastic pipette and placed in a plastic capped, 50 mL Corning conical sterile centrifuge tube which was held at room temperature. Platelet poor plasma (PPP) was prepared by centrifuging the remaining blood at 2000 x g for 15 minutes at room temperature allowing the centrifuge to coast to a stop without braking. The PRP was adjusted with PPP to a count of 2-3×10^8 platelets per mL. 400 uL of the PRP preparation and 50 uL of the compounds solution to be tested or saline were preincubated for 1 minute at 37° C. in a […].). 50 uL of adenosine 5' diphosphate (ADP) (50 um final concentration) was added to the cuvettes and the aggregation was monitored for 1 minute. All compounds are tested in duplicate. Results are calculated as follows: Percent of control=[(maximal OD minus initial OD of compound) divided by (maximal OD minus initial OD of control saline)]×100. The % inhibition=100-(percent of control).
The compounds tested and their median inhibitory concentrations (IC50) are recorded in Table I. IC50 's (dosage at which 50% of platelet aggregation is inhibited) were calculated by linear regression of the dose response curve.

Here are results for three compounds from US5710166A, “N-acyl beta amino acid derivatives useful as platelet aggregation inhibitors” (The Monsanto Company, priority 1995, dated 1998).

Each structure is given as a SMILES string.

On to `N=C(N)c1ccc(CNc2cccc(C(=O)NC(CC(=O)O)c3cccnc3)c2)cc1` (stereo not drawn) [Example 4, β-[[3-[4-(aminoiminomethyl)benzyl]aminobenzoyl]amino]-3-pyridinepropanoic acid], for which the IC50 came out at 6.8 µM.
Regarding `N=C(N)c1ccc(CNc2cccc(C(=O)NCCC(=O)O)c2)cc1` [Example 2, β-[[3-[4-(aminoiminomethyl)benzyl]aminobenzoyl]amino]propanoic acid], the inhibition at 10 µM (compound at 10^-5 M, read-out: % Inh. (inhibition of platelet aggregation)) came out at 28%.
As for `N=C(N)c1ccc(CNCCC(=O)NC(CC(=O)O)c2cccnc2)cc1` (stereo not drawn) [Example 6, β-[[3-[4-(aminoiminomethyl)benzyl]aminopropanoyl]amino]-3-pyridinepropanoic acid], the IC50 is 0.8 µM.
